Results reported in patent US10799536B2, “Method of treating multiple myeloma using natural killer cells expressing a chimeric antigen receptor for CD38” (Onkimmune Limited, priority 2016, dated 2020).
Like-named read-outs stand apart in the source and are kept apart here.

Legend:
DR5 [1] = settings: for DR5 expression, MFI: 24 hours, FIG. 20
Text: Bortezomib was bought from Millennium Pharmaceuticals.

DR4 = DR4 (Homo sapiens, UniProt O00220); settings: surface plasmon resonance; WO 2009/077857; cited from earlier work
decoy receptor DcR1 = target: T1, decoy receptor DcR1 (Homo sapiens, UniProt O14798); settings: surface plasmon resonance; WO 2009/077857; cited from earlier work
T1 sequence (O14798 26-236): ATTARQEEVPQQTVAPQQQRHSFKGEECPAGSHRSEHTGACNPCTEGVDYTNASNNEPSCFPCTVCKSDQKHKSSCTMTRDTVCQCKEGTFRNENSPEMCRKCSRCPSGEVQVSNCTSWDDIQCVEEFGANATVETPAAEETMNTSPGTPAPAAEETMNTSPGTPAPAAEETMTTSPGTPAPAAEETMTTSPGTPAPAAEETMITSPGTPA

CTLA4 gene = assay: gRNA cleavage in K562 cells, T7E1 mismatch detection assay; format: cell-based, human; settings: FIG. 7
Description: (§1) Cells having inhibitory receptor function removed were prepared as follows. gRNA constructs were designed and prepared to target genes encoding the ‘classical’ inhibitory receptor LIR2 and the ‘checkpoint’ inhibitory receptor CTLA4 in the human genome of NK cells. CRISPR/Cas9 genome editing was then used to knock out the LIR2 and CTLA4 target genes.
(§2) Two gRNA candidates were selected for each target gene and their cleavage efficacies in K562 cells determined.
(§3) K562 cells were transfected with the prepared gRNA constructs (FIG. 5) and subsequently harvested for PCR amplification. The presence of GFP expression was used to report successful incorporation of the gRNA construct into the K562 cells. This confirmed expression of the Cas9 gene and therefore the ability to knock out expression of the LIR2 and CTLA4 genes. The cleavage activity of the gRNA constructs was determined using an in vitro mismatch detection assay. T7E1 endonuclease I recognizes and cleaves non-perfectly matched DNA, allowing the parental LIR2 and CTLA4 genes to be compared to the mutated genes following CRISPR/Cas9 transfection and non-homologous end joining (NHEJ).

LIR2 gene = assay: as above; format: cell-based, human; settings: FIG. 6
Description: as §1, §2, §3
The three bands corresponding to each mutation relate to the parental gene (601) and the two resulting strands following detection of a mismatch in the DNA sequence after transfection (602 and 603).

DR5 [2] = target: DR5 (Homo sapiens, UniProt O14763); settings: D269H/E195R mutation, relative to wildtype TRAIL; cited from earlier work
[3] = system: decoy receptors (DcR1 and DcR2); settings: D269H/E195R mutation, relative to wildtype TRAIL; cited from earlier work

For `CC(C)C[C@H](NC(=O)[C@H](Cc1ccccc1)NC(=O)c1cnccn1)B(O)O` [Bortezomib], the “DR5 expression, MFI” value (DR5 [1]; MM1.S cells, 2.5 nm of Bortezomib, untreated MFI 214) was 662, the “DR5 expression, MFI” value (DR5 [1]; RPMI 8226 cells, 10 nm Bortezomib, untreated MFI 273) was 679 and the “DR5 expression at high doses” value (DR5 [1]; high doses of Bortezomib) was “could not be upregulated”.

In the case of “Wildtype TRAIL: TNF-related apoptosis-inducing ligand, wild-type protein”, the Kd (DR4) is listed as over 2 nM and the Kd (decoy receptor DcR1) is listed as over 20 nM.

For “g7 gRNA: gRNA targeting hCTLA4, CACTCACCTTTGCAGAAGACAGG (SEQ ID NO: 26) (listed as DNA, chemistry not fully specified; listed as Homo sapiens)”, the “success rate of transfection (CTLA4 knockout)” value (CTLA4 gene) was 32%.

In the case of “g9 gRNA: gRNA targeting hLIR2, GAGTCACAGGTGGCATTTGGCGG (SEQ ID NO: 24) (listed as DNA, chemistry not fully specified; listed as Homo sapiens)”, the “success rate of transfection (LIR2 knockout)” value (LIR2 gene) is reported as 11%.

For “g15 gRNA: gRNA targeting hCTLA4, CCTTGTGCCGCTGAAATCCAAGG (SEQ ID NO: 27) (listed as DNA, chemistry not fully specified; listed as Homo sapiens)”, the “success rate of transfection (CTLA4 knockout)” value (CTLA4 gene) was 26%.

With “g18 gRNA: gRNA targeting hLIR2, CGAATCGCAGGTGGTCGCACAGG (SEQ ID NO: 25) (listed as DNA, chemistry not fully specified; listed as Homo sapiens)” the “success rate of transfection (LIR2 knockout)” value (LIR2 gene) was 10%.

B1: TRAIL variant: TRAIL variant of WO 2009/077857, wildtype TRAIL gene containing the D269H/E195R mutation (protein)
chain: MAMMEVQGGPSLGQTCVLIVIFTVLLQSLCVAVTYVYFTNELKQMQDKYSKSGIACFLKEDDSYWDPNDEESMNSPCWQVKWQLRQLVRKMILRTSEETISTVQEKQQNISPLVRERGPQRVAAHITGTRGRSNTLSSPNSKNEKALGRKINSWESSRSGHSFLSNLHLRNGELVIHEKGFYYIYSQTYFRFQERIKENTKNDKQMVQYIYKYTSYPDPILLMKSARNSCWSKDAEYGLYSIYQGGIFELKENDRIFVSVTNEHLIDMHHEASFFGAFLVG
In the case of B1, the “affinity of the TRAIL variant for DR5” value (DR5 [2]) is given as “significantly increases” and the “affinity for both decoy receptors (DcR1 and DcR2)” value [3] is given as “reducing”.
